Legend:
PPAR alpha = molecular target: T1, PPAR alpha (Homo sapiens, UniProt Q07869); assay: PPAR-alpha transactivation assay (luciferase reporter, SK-Hep1 cells cotransfected with PPARα expression vector); type: cell-based; settings: for Fold Activation PPAR alpha: 36 h incubation, luciferase activity relative to control
T1 construct: expressed in transfected cells; host or cells: human SK-Hep1 cells
T1 sequence (Q07869 1-468): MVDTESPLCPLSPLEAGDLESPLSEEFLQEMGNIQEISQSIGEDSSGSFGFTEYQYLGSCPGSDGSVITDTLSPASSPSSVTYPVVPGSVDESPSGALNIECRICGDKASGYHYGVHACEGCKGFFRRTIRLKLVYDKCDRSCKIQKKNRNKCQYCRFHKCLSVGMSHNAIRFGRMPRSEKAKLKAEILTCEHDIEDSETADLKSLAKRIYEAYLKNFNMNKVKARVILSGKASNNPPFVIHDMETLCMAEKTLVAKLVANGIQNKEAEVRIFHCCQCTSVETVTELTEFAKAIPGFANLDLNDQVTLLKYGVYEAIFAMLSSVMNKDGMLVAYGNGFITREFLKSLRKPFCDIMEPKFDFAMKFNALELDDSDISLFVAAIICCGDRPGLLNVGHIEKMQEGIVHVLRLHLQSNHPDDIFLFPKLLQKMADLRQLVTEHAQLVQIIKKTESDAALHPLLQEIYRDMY
Excerpt: (§1) Analysis of the activation of PPARα and PPARγ is based on the transfection of a DNA allowing the expression of a reporter gene (the gene of luciferase) under the control of the PPARs, either endogenous in the case of PPARγ or exogenous in the case of PPARα. The reporter plasmid J3TkLuc comprises three copies of the response element for PPARs of the human apo A-II gene (Staels, B et al. (1995), J. Clin. Invest., 95, 705-712) which are cloned upstream of the promoter of the thymidine kinase gene of the herpes simplex virus in the plasmid pGL3. This reporter gene was obtained by subcloning, in the plasmid pGL3, the plasmid J3TkCAT described above (Fajas, L et al. (1997), J. Biol. Chem., 272, 18779-18789). […] These cells were inoculated at the rate of 20,000 cells per well (96-well plates) and transfected with 150 ng of reporter DNA complexed with a mixture of lipids. In the case of the SK-Hep1 cells, an expression vector for PPARα, described by Sher, T. et al. (1993), Biochemistry, 32, 5598-5604, is cotransfected. After 5 hours, the cells are washed twice and incubated for 36 hours in the presence of the test compound in a fresh culture medium comprising 10% foetal calf serum. At the end of incubation, the cells are lysed and the luciferase activity is measured.

PPAR gamma = assay: PPAR-gamma transactivation assay (luciferase reporter, CV1 cells expressing PPARγ); type: cell-based, human; settings: for Fold Activation PPAR gamma: 36 h incubation, luciferase activity relative to control
Excerpt: as §1

B16-V melanoma cells = assay: Inhibition of melanin synthesis in B16-V melanoma cells (whitening activity); type: cell-based; settings: 72 h, alpha-MSH stimulation, FIG. 1
Protocol: B16-V melanoma cells were incubated for 72 h with assay medium containing different amounts of test substances. The concentration depends on the results of the MTT-Assay. Only concentrations without effect on viability (after 24 h incubation) were used for further melanin evaluation. Every 24 hours medium was changed and replaced by fresh assay medium containing the compounds and alpha-MSH (stimulation of melanin synthesis). The cell number was determined and the cells got lysed using 1M NaOH. Afterwards the amount of melanin was measured at 405 nm with a microplatereader (Safire2™, Tecan). Different concentrations of synthetic melanin were used to produce a calibration curve. Melanin content was expressed as pg/cell.

[1] = tested on: epidermal differentiation proteins; assay: In vitro expression of epidermal differentiation proteins; type: cell-based; settings: own unpublished results

CCOC(=O)c1c(C)n(CC(C)C)c2ccc(OC(C)(C(=O)O)c3ccccc3)cc12 (stereo not shown) [Compound, 2-Phenyl-2-(1-isobutyl-2-methyl-3-ethoxycarbonyl-5-indolyloxy)-propionic acid]
PPAR-alpha activation (in words) (PPAR alpha): activator
Fold Activation PPAR alpha (PPAR alpha; 0.1 μm): 1.0 fold
Fold Activation PPAR alpha (PPAR alpha; 0.3 μm): 1.3 fold
Fold Activation PPAR alpha (PPAR alpha; 1 μm): 1.9 fold
Fold Activation PPAR alpha (PPAR alpha; 3 μm): 2.3 fold
Fold Activation PPAR alpha (PPAR alpha; 6.25 μm): 10.2 fold
Fold Activation PPAR alpha (PPAR alpha; 10 μm): 6.7 fold
Fold Activation PPAR alpha (PPAR alpha; 12.5 μm): 21.6 fold
Fold Activation PPAR alpha (PPAR alpha; 25 μm): 34.8 fold
Fold Activation PPAR alpha (PPAR alpha; 30 μm): 31.1 fold
Fold Activation PPAR alpha (PPAR alpha; 50 μm): 42.0 fold
PPAR-gamma activation (in words) (PPAR gamma): activator
Fold Activation PPAR gamma (PPAR gamma; 0.1 μm): 0.6 fold
Fold Activation PPAR gamma (PPAR gamma; 0.3 μm): 1.8 fold
Fold Activation PPAR gamma (PPAR gamma; 1 μm): 2.8 fold
Fold Activation PPAR gamma (PPAR gamma; 3 μm): 3.0 fold
Fold Activation PPAR gamma (PPAR gamma; 6.25 μm): 12.9 fold
Fold Activation PPAR gamma (PPAR gamma; 10 μm): 4.3 fold
Fold Activation PPAR gamma (PPAR gamma; 12.5 μm): 16.9 fold
Fold Activation PPAR gamma (PPAR gamma; 25 μm): 18.7 fold
Fold Activation PPAR gamma (PPAR gamma; 30 μm): 7.6 fold
Fold Activation PPAR gamma (PPAR gamma; 50 μm): 18.8 fold
melanin inhibiting activity (B16-V melanoma cells): superb melanin inhibiting activity
melanin inhibiting activity compared with kojic acid (B16-V melanoma cells): significantly better than kojic acid
expression of epidermal differentiation proteins [1]: increased expression of epidermal differentiation proteins

Reference: patent US9700501B2, “Use of indole compounds as a cosmetic” (MERCK PATENT GESELLSCHAFT MIT BESCHRANKTER HAFTUNG, priority 2008, dated 2017)
